We go through one molecule from patent US20070197591A1, “USE OF PALIPERIDONE FOR THE TREATMENT OF A MENTAL DISORDER IN A PSYCHIATRIC PATIENT WITH REDUCED HEPATIC FUNCTION” (priority 2005, published 2007).

A short description of series [1]: clinical. As to conditions: in vivo. The arrangement: species or system human. The source says:
Objectives: to investigate the metabolic pathways of paliperidone and excretion of paliperidone and its metabolites in healthy adult male subjects, both CYP2D6 poor and extensive metabolizers, after administration of a single 1-mg oral dose of ^14C-paliperidone. In addition, to evaluate the safety and tolerability of paliperidone, as well as the relationship between genotypes (CYP2D6, CYP3A4, CYP3A5, UGT1A1, and UGT1A6) and exposure to paliperidone and its metabolites.
Methodology: Single-center, single-dose open-label study of the absorption, metabolism, and excretion (AME) of paliperidone in healthy men (3 extensive and 3 poor metabolizers based on CPY2D6 phenotype). […] Each subject received a single oral dose of ^14C-paliperidone with total radioactivity below […] (16 μCi). Blood samples for plasma pharmacokinetic profile were obtained immediately before study drug administration and 0.5, 1, 1.5, 3, 6, 12, 16, 36, 48, 72, 96, 120, 144 and 168 hours postdose. Blood samples were obtained 2, 4, 8, and 24 hours postdose for determination of ^14C in whole blood. Samples for determination of serum creatinine were obtained 2, 4, 8, and 24 hours postdose. Urine was collected immediately prior to drug administration and from 0-4, 4-8, 8-12, 12-16, 16-24, 24-36, 36-48, 48-72, 96-120, 120-144, and 144-168 hours after study drug administration. Fecal samples were colleted per each stool, once before study drug administration and in the period from 0-168 hours after study drug administration. Collections of urine and feces (per 24 hours) were to continue beyond 168 hours, to a maximum of 336 hours (Day 15) for subjects who excrete radioactivity slowly (2 latest 24-hour urine collections each >2% of total radioactive dose) or have <7 feces stool samples over the 0 to 168-hour period. ^14C radioactivity was measured in plasma, urine, and feces. Aliquots of the 0- through 24-hour urine collections were analyzed for cretinine. Plasma concentrations of paliperidone and risperidone were determined by means of a validated LC-MS/MS method. The ^14C-labeled moiety in plasma and urine was determined by liquid scintillation counting. For all plasma samples, the lower limits of quantification for paliperidone and risperidone were 0.100 ng/mL. For all plasma and urine samples the lower limits of quantification for ^14C-palieridone was 72 dpm/mL (=2.0 n g-eq/mL).
Number of Subjects (Planned and Analyzed): Six healthy men, 3 extensive and 3 poor metabolizers based on CYP2D6 phenotype were to participate in the study. Five subjects, 3 extensive and 2 poor metabolizers, received a single dose of ^14C-paliperidone, completed the study (i.e., completed all assessments through Day 8) and were considered valuable for safety (the Safety Analysis Set), as well as for pharmacokinetics.
Test Product, Dose and Mode of Administration Batch No.: Single oral 0.988-mg dose of ^14C-paliperidone, oral solution (aqueous formulation at a final concentration of 0.0984 mg/mL). Batch No.: unlabeled paliperidone oral solution: ZR076477EIA031 (manufacturing date: 23 Apr. 2003, retest date: 23 Oct. 2004): ^14C-paliperidone: 1763 (expiration date: not applicable)
Criteria for Evaluation: Pharmacokinetics: Plasma paliperidone. ^14C radioactivity and metabolite profiles were determined. Plasma Cmax, tmax, AUClast, AUC24, AUC∞, λZ, t1/2term, CL/F of ^14C and paliperidone were estimated by non-compartmental analysis. Based on the individual urine excretion data and on the serum creatinine concentrations, Ae, Ae, % dose, CLR, CLR,24h and CLer and paliperidone and CLGFR, and CLact of paliperidone were estimated. The excretion half-life of ^14C in urine was also estimated based on excretion rate-time profiles.
Statistical Methods: Pharmacokinetics: Plasma concentrations of ^14C and paliperdone as well as estimates for pharmacokinetic parameters were listed and graphically presented, and the excretion analysis of total radioactivity in plasma, urine and feces were summarized. […]

Series [2] can be described thus: Plasma protein binding / unbound fraction of paliperidone and its enantiomers. The series is classed as in vitro ADME, human. As to conditions: human. The source says: Objectives: The primary objective of this study was to investigate the single-dose pharmacokinetics of immediate-release (IR) paliperidone, after oral administration, in subjects having moderate hepatic impairment (“hepatically-impaired subjects”) compared with subjects having normal hepatic function (“healthy subjects”). The secondary objective was to document the plasma protein binding and disposition of the enantiomers of paliperidone. In addition, the tolerability and safety profile of IR paliperidone was compared between hepatically impaired subjects and healthy subjects. Criteria for Evaluation: Pharmacokinetics: Plasma and urine concentrations of the paliperidone enantiomers (+) R078543 and (−) R078544 were determined using an LC-MS/MS method. Concentrations of paliperidone were calculated as the sum of the enantiomer concentrations. In addition, serum and urine concentrations of creatinine were determined for the calculation of CLCR. The protein binding and unbound fraction was determined for the 2 paliperidone enantiomers. The unbound fraction for paliperidone was calculated.

Usually Tmax stands for the time from dosing to the highest level. Broadly, the AUC is the area under the concentration-time curve, a measure of exposure. A high value points to high exposure. As usually defined, the AUC(0-inf) is the area under the concentration-time curve extrapolated to infinity. As usually defined, the Cmax is the highest concentration seen after dosing. As usually defined, the fraction unbound is free concentration divided by total concentration. Read a low fraction unbound as little free substance. As for `Cc1nc2n(c(=O)c1CCN1CCC(c3noc4cc(F)ccc34)CC1)CCCC2O` (stereo not drawn) [Paliperidone, paliperidone], the “effect of genotype (CYP2D6, UGT1A1 or UGT1A6) on the plasma exposure of TR and UD” value in series [1] is recorded as “No effect of genotype”. The “share of UD excreted by means of filtration” value in series [1] (male, human) was “About 50%”. The molecule further came in with a CL renal in series [1] (male, human, CLR) of 53.1 ± 9.47 mL/min. Besides, the Tmax in series [1] (male, human, po) is 1.33 ± 0.289 h; in series [1] (male, human, po, tmax) it was 1.3 h. Further, the “cumulative urinary excretion of unchanged paliperidone” value in series [1] (male, human, po, 7 days) stood at 59%. The exposure (AUC) in series [1] (male, human, po, AUC24) worked out at 111 ± 22 ng·h/mL. This molecule yielded an area under the curve AUC(0-inf) in series [1] (male, human, po, AUC∞) of 187 ng·h/mL. In addition, the Cmax in series [1] (male, human, po, Cmax) was 8.85 ng/mL. Besides, the figures for the fraction unbound in series [2] (Healthy Subjects (n = 10)) and in series [2] (Hepatically-Impaired Subjects (n = 10; paliperidone n = 8)) were 0.279 and 0.353, respectively. In addition, the relative increase in unbound fraction vs healthy subjects in series [2] (vs healthy subjects, read-out: unbound fraction higher in hepatically-impaired subjects) is ~0.27.
